Assay results as given in the METLIN SMRT retention time set (Domingo-Almenara et al. 2019).

Experiment: gradient 5% acetonitrile 3 min, to 50% in 2 min, to 85% in 15 min, held 3 min, 100 µL/min
Settings: column: Zorbax Extend-C18 2.1 x 50 mm; eluents: water / acetonitrile, 0.1% formic acid
Procedure, shortened: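 Each retention time is based on an adduct peak selected computationally and verified by manual inspection. Measurements used HPLC–quadrupole time-of-flight mass spectrometry in positive and negative ionization mode on mixtures of ~100 pure standards. Chromatography ran on a Zorbax Extend-C18 column (2.1 × 50 mm, 1.8 μm) at 100 μL/min with water and acetonitrile, each containing 0.1% formic acid, and dead and dwell volumes of 40 μL and 900 μL.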

RP-LC retention time | SMILES
819 s | COc1ccc(C)cc1NC(=O)N1CCC2(CC1)NC(=O)c1cccc(Cl)c1N2
816 s | O=C(c1ccccc1)N1CCCc2cc(NS(=O)(=O)c3ccccc3Cl)ccc21
872 s | CCN1C(=O)c2cccnc2Sc2cc(NC(=O)COc3ccc(F)cc3)ccc21
657 s | CC(C)c1nnc(-c2coc(S(=O)(=O)N3CCN(c4ccccn4)CC3)c2)o1
955 s | Cc1ccc(CNC(=O)C2CCN(S(C)(=O)=O)c3cc(Cl)ccc3O2)cc1 (stereo not drawn)
637 s | COc1cc(OC)c(NC(=O)Cc2cn3cc(F)ccc3n2)cc1Cl
687 s | COc1ccccc1CN1CCc2nc(N3CCN(c4ccccc4OC)CC3)ncc2C1
843 s | CC1CCN(C(=O)C2CCc3sc(C(=O)N4CCCC4)cc3C2)CC1 (stereo not drawn)
1090 s | CCn1c(=O)c2cc(C(=O)Nc3ccc4c(c3)CCC4)nn2c2ccccc21
890 s | Cc1ccc2nc(-c3ccc(Cl)cc3)c(Nc3ccccc3C)n2c1
810 s | CCOC(=O)COc1cc(-c2ccc(F)cc2)nc2ccc(NC(=O)C3CCC3)cc12
733 s | CSc1cccc(NC(=O)NCC(c2cccnc2)c2cn(C)c3ccccc23)c1 (stereo not drawn)
1060 s | CCCN1C(=O)COc2ccc(-c3csc(NC(=O)c4ccc(F)cc4)n3)cc21
590 s | COc1ccc2c(c1)c(CN1CCC(C(=O)NCCN(C)Cc3ccccc3)CC1)cn2C
821 s | CCN(CC)C(=O)C1CCN(S(C)(=O)=O)c2cc(Cl)ccc2O1 (stereo not drawn)
672 s | CCc1nccn1Cc1noc(-c2ccc(C)c(C)c2)n1
959 s | CCn1cc(-c2ccc(F)cc2)cc1C(=O)N1CCCC1
572 s | Cc1ncoc1C(=O)N1CCOc2ccc(N(C)C)cc2C1
756 s | Cc1ccc(NC(=O)Cn2c(C)nc3onc(C)c3c2=O)cc1C
596 s | CCC1CCCCN1CCCNC(=O)CCc1cc2cc(OC)ccc2[nH]c1=O (stereo not drawn)
943 s | COC(=O)c1ccccc1NC(=O)N(Cc1cc(=O)[nH]c2ccccc12)CC(C)C
891 s | CCc1nc(-c2cc(S(=O)(=O)NCC(=O)N3CCCCC3)c(C)s2)no1

RP-LC retention time | SMILES
755 s | CC(C)c1noc(C2CCCCN2C(=O)c2cnn3cccnc23)n1 (stereo not drawn)
620 s | Cn1cc(CCN2CCN(C(=O)c3ccc(Br)cc3)CC2)c2cccnc21
950 s | O=C(N[C@H]1C[C@@H]2C[C@H]1N(C(=O)Nc1ccc3c(c1)CCC3)C2)c1ccccc1
910 s | Cc1ccc(-n2nc(N3CCCN(S(=O)(=O)c4ccccc4C)CC3)ccc2=O)cc1
615 s | Cc1ccccc1OCC(=O)NC1CCN(Cc2c(C)noc2C)CC1
968 s | O=C(NCCC1=CCCCC1)c1c[nH]c2ncccc12
930 s | COc1ccccc1CC(=O)N1CCCn2nc(-c3ccc(C)cc3)cc2C1
765 s | COc1ccc(Cl)cc1NS(=O)(=O)c1ccc2c(c1)CCCC(=O)N2
771 s | CC(C)(C)c1noc(-c2cccnc2-n2cnc(C(=O)NC3CCCCC3)c2)n1
805 s | COCCN1C(=O)c2ccccc2C(C(=O)NCCCN2CCOCC2)C1c1cccs1 (stereo not drawn)
770 s | O=C(CCc1c[nH]c2ccccc12)N1CCOc2ccc(N3CCOCC3)cc2C1
1130 s | CC(C)(C)OC(=O)Cn1cnc2c(-c3cccc(Cl)c3)csc2c1=O
947 s | Cc1ccc(CNC(=O)Cn2c(C)cc(-c3nnc(C4CCC4)o3)c2C)cc1C
819 s | Cc1sc(-c2nnc(C3CC3)o2)cc1NC(=O)C1CC1
856 s | O=C(NCc1cc(-c2cc3ccccc3o2)on1)c1ccc2c(c1)OCO2
763 s | COCCN1C(=O)CCc2cc(NS(=O)(=O)c3ccccc3Br)ccc21
640 s | O=S(=O)(c1ccc2c(c1)-c1oncc1CO2)N1CCN(C2CCCCC2)CC1
637 s | O=C(CCCS(=O)(=O)c1ccc(F)cc1)Nc1nnc(-c2ccno2)o1
593 s | O=C(NCCC1=CCCCC1)C(=O)NCC1CCN(Cc2ccccc2)CC1
1070 s | O=c1c2sccc2n(Cc2nc(-c3ccc(F)cc3)no2)c(=O)n1-c1ccc(Cl)cc1
1240 s | CCN1C(=O)COc2ccc(-c3nc(NC(=O)CCC4CCCCC4)sc3C)cc21
740 s | Cc1ccc(NC(=O)Cn2ccc3sccc3c2=O)cc1C

RP-LC retention time | SMILES
784 s | O=C(NCc1ccc(F)cc1F)c1ccc(OCC(=O)C2CC2)cc1
695 s | NS(=O)(=O)c1ccc(CCNC(=O)C(=O)Nc2ccc(Cl)cn2)cc1
740 s | O=S(=O)(c1cccnc1)N1CCc2[nH]nc(-c3ccc(F)cc3)c2C1
1150 s | COc1ccccc1NS(=O)(=O)c1c(C)nn(-c2ccc(-c3ccc(C)cc3)nn2)c1C
634 s | COc1cc2ncc(S(=O)(=O)c3ccc(Cl)cc3)c(N3CCN(C)CC3)c2cc1OC
766 s | O=C(NCc1ccc2c(c1)OCO2)C1CCN(C(=O)c2ccc(Cl)cc2)CC1
1270 s | Cc1cc(C)c(S(=O)(=O)N2CCCC2c2nc(-c3cccc(F)c3)no2)cc1C (stereo not drawn)
630 s | CCc1ccc(S(=O)(=O)N2CC(COC)C3(CCNCC3)C2)cc1 (stereo not drawn)
879 s | CCOc1ccc(-n2ccn3cc(-c4ccc(C)cc4)nc3c2=O)cc1
923 s | O=C(Nc1cccc(C(F)(F)F)c1)NC1CCN(c2ccc(F)cc2)C1=O (stereo not drawn)
621 s | COc1ccc(C2(C(=O)N3CCN(C(=O)c4cc(-c5cccnc5)n[nH]4)CC3)CC2)cc1
854 s | CC(C)c1ccc(NC(=O)Cc2nnc(-c3ccc4ncccc4c3)o2)cc1
978 s | Clc1cccc(-c2nc3ccc(Cl)cn3c2Nc2ccc3c(c2)OCO3)c1
860 s | O=C(COc1ccccc1F)Nc1ccc2c(c1)CCC(=O)N2Cc1ccccc1
657 s | COC(=O)c1ccc(C(=O)Nc2ccc(CC(=O)NC3CC3)cc2)cc1
894 s | O=C(Cn1nc(N2CCOCC2)c2ccccc2c1=O)Nc1cccc(C(F)(F)F)c1
629 s | O=C(NC1CC1)C1CCCN(C(=O)c2ccc(F)cc2)C1 (stereo not drawn)
608 s | CCCNC(=O)CCc1c(-c2ccc(F)cc2)nc2ccccn12
955 s | Cc1ccccc1S(=O)(=O)N1CCc2c(c(-c3nnc(-c4ccc(F)cc4)o3)nn2C)C1
584 s | CN(C)CC1CCC2=C(C1=O)C(c1ccc(Cl)c(Cl)c1)C1=C(CCC(CN(C)C)C1=O)O2 (stereo not drawn)
814 s | O=C(CN1C(=O)C2CCCCN2c2ccc(C(=O)N3CCCC3)cc21)NC1CCCCC1 (stereo not drawn)
669 s | CC1=C(C(=O)NCc2ccc3c(c2)OCO3)C2(CCN(Cc3ccccc3)CC2)OC1=O

RP-LC retention time | SMILES
636 s | COC1CCC12CCN(C(=O)C1CCOCC1)CC2 (stereo not drawn)
1300 s | CCOc1ccc(-c2nc(-c3cccc(-c4ccnn4CC)c3)no2)cc1OCC
1200 s | Cc1c(Cl)cccc1NC(=O)C1CCCN(c2nc3c(s2)c(C)nn3-c2cccc(F)c2)C1 (stereo not drawn)
858 s | CCN1C(=O)CCc2cc(NS(=O)(=O)c3ccc(C(F)(F)F)cc3)ccc21
951 s | COc1ccc(NC(=O)c2nnc(C(=O)NCCc3c[nH]c4ccc(OC)cc34)s2)cc1
1090 s | Cc1ccccc1-c1noc(-c2nc(-c3ccncc3)no2)n1
1050 s | Cc1ccc(NC(=O)C2CCN(S(=O)(=O)c3ccc4c(c3)sc(=O)n4C(C)C)CC2)cc1F
940 s | Cc1cccc(C(=O)N2N=C(c3ccco3)CC2c2cccs2)c1 (stereo not drawn)
707 s | COc1ccc(S(=O)(=O)Nc2cc(-c3cn4cccc(C)c4n3)ccc2C)cc1C
1260 s | CCc1ccc(S(=O)(=O)N2CCCC2c2nc(-c3cccc(C)c3)no2)cc1 (stereo not drawn)
626 s | Cc1ccc(Cl)cc1N1CCN(CC(O)COc2ccccc2[N+](=O)[O-])CC1 (stereo not drawn)
975 s | O=C(c1ccccn1)N1CCc2cc(-c3csc(C4CC4)n3)ccc21
851 s | Fc1cc(F)cc(-c2nnc(Cc3nc(-c4cccc(C(F)(F)F)c4)no3)o2)c1
702 s | Cc1cc(=O)c2cc(C(=O)Nc3nc4ccccc4s3)ccc2[nH]1
1190 s | CCc1ccc(NC(=O)Cn2nc3cc(C)nc(Nc4ccc(C)c(F)c4)n3c2=O)cc1
798 s | CN(Cc1ccccc1)C(=O)CCSC1CCc2ccccc2NC1=O (stereo not drawn)
1310 s | Cn1c(=O)c(C(=O)N2CCN(c3ccccn3)CC2)nc2ccccc21
665 s | O=C1NCCOCCCN(C(=O)Nc2ccc3c(c2)OCCO3)[C@H]2CCCC[C@@H]12
774 s | Cc1nc(-c2cc(S(=O)(=O)NCC(=O)NC3CCCC3)c(C)s2)no1
616 s | Cc1nc(-c2ccccc2)nc2c1CC(=O)N2Cc1cccnc1
880 s | CCOc1ccccc1NC(=O)C1CCCN1S(=O)(=O)c1cc2c(cc1Cl)NC(=O)CO2 (stereo not drawn)
596 s | Oc1ccc(-c2nc3ccccn3c2Nc2ccc3c(c2)OCCO3)cc1
